Drawing on patent US20230312476A1, “COMPOUNDS WITH SEMIOCHEMICAL PROPERTIES AND BIOSENSORS” (ROTHAMSTED RESEARCH LIMITED, priority 2020, published 2023), this text covers Kd for six compounds.

One experiment deals with OBP9 (Acyrthosiphon pisum, UniProt A0A8R1TD77). Briefly: 1-NPN fluorescence competitive binding assay, OBP9. The procedure:
(§1) All fluorescent measurements were undertaken using a Perkin-Elmer LS50B fluorescence spectrophotometer, using a 2 mL quartz cuvette, and the settings described below in Table 13, unless otherwise stated. Spectra were recorded using FL WinLab software.
(§2) Saturation of OBPs with fluorescent probe and 1-NPN (Sigma-Aldrich) was initially measured by titrating a 2 μM protein sample (2 mL in 25 mM Tris-HCl) with aliquots of 1 mM ligand (Sigma-Aldrich) in methanol to final concentrations of 1-16 μM. The fluorescence intensity at […] was recorded.
(§3) The competitive binding of ligands was measured by observing the intrinsic fluorescence of tryptophan. Titrations were performed with aliquots of 1 mM ligand in methanol to final concentrations of 1-20 μM, either after the addition of fluorescent probe to a final concentration of 1 μM or in the absence of fluorescent probe.
(§4) To generate KD values, relative fluorescence intensity was plotted against the concentration of ligand as a binding curve. KD values were generated in GraphPad Prism 7 using a non-linear regression and the inbuilt equation: […]

Experiment [1] has as its target T1, OBP6 (Acyrthosiphon pisum, UniProt A0A8R1TDN2). The experiment can be described thus: 1-NPN fluorescence competitive binding assay, OBP6. The procedure:
as §1, §2, §3, §4

Experiment [2] has as its target T1, OBP6. Briefly: Fluorescent probe-free (intrinsic tryptophan fluorescence) binding assay, OBP6. As to the method:
as §1, §3, §4

The mark [3] stands for this setting: OBP9 with 1-NPN fluorescent probe, non-linear regression, ± error, read-out: OBP9 1-NPN Assay KD.
Where [4] appears, read: OBP6 with 1-NPN fluorescent probe, non-linear regression, ± error, read-out: OBP6 1-NPN Assay KD.
Setting [5] is: OBP6, absence of fluorescent probe, non-linear regression, ± error, read-out: OBP6 Fluorescent Probe-Free Assay KD.

SMILES strings stand for the structures. Like-named read-outs stand apart in the source and are kept apart here.

Chain of OBP9 (A0A8R1TD77 1-165): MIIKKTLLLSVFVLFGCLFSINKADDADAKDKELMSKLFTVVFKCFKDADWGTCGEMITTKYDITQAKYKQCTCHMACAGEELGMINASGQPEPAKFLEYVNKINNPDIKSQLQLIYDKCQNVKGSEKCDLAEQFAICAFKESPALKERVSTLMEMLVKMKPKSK
T1 sequence (A0A8R1TDN2 1-160): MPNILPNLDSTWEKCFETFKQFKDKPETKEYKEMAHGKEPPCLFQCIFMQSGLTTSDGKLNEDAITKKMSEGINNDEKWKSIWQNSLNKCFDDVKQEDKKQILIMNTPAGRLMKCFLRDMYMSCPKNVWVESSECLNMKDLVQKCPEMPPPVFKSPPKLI

For orientation: Kd means the equilibrium constant for the complex coming apart. `CC1=COC(=O)[C@H]2[C@H](C)CC[C@@H]12` [Compound D, (4aR,7R,7aS)-4,7-dimethyl-5,6,7,7a-tetrahydrocyclopenta[c]pyran-1(4aH)-one]: the Kd on OBP9 was found to be 9.68 ± 4.57 µM; at OBP6 [1], 4.37 ± 0.81 µM; on OBP6 [2], 12 ± 4.24 µM.

As for `CC1=COC(=O)[C@H]2[C@@H]1CC[C@@H]2C` [Compound B, (4aS,7S,7aR)-4,7-dimethyl-5,6,7,7a-tetrahydrocyclopenta[c]pyran-1(4aH)-one], the Kd amounted to 6.49 ± 1.58 µM on OBP9 (setting [3]), 1.3 ± 0.6 µM on OBP6 [1] (setting [4]) and 1.9 ± 0.35 µM on OBP6 [2] (setting [5]).

For `CC1=CO[C@@H](O)[C@H]2[C@@H]1CC[C@@H]2C` [Compound A, (1R,4aS,7S,7aR)-4,7-dimethyl-1,4a,5,6,7,7a-hexahydrocyclopenta[c]pyran-1-ol], the dissociation constant Kd at OBP9 (setting [3]) stood at 5.74 ± 1.71 µM; on OBP6 [1] (setting [4]), 2.62 ± 0.63 µM; on OBP6 [2] (setting [5]), 12.7 ± 2.31 µM.

Regarding `CC1=CO[C@H](O)[C@H]2[C@H](C)CC[C@@H]12` [Compound C, (1S,4aR,7R,7aS)-4,7-dimethyl-1,4a,5,6,7,7a-hexahydrocyclopenta[c]pyran-1-ol], the Kd at OBP9 (setting [3]) was 6.29 ± 1.99 µM; at OBP6 [1] (setting [4]) it was 2.65 ± 0.8 µM; on OBP6 [2] (setting [5]), 8.46 ± 1.62 µM.

Regarding `C=CC(C)(O)CCC=C(C)C` (racemic) [(R/S)-linalool], the affinity on OBP6 [1], expressed as Kd, was 8.95 ± 3.71 µM.

`C=CC(=C)CC/C=C(\C)CCC=C(C)C` [(E)-β-farnesene]: the values for the dissociation constant (Kd) on OBP9 (setting [3]), on OBP6 [1] (setting [4]) and at OBP6 [2] (setting [5]) were 8.32 ± 2.67 µM, 10.1 ± 2.88 µM and 34.5 ± 10.9 µM, respectively.
